Measured values taken from paper PMC3338516 (PLoS ONE, 2012).
Like-named read-outs stand apart in the source and are kept apart here. Ends that are not written are not given here.

Key:
HLA-B0702 [1] = target: T1, HLA-B0702 (Homo sapiens, UniProt P01889); assay: Competition-based cellular peptide binding assay, HLA-B0702; settings: for IC50: mild-acid-treated B-LCLs, 150 nM fluorescent reference peptide […], overnight 4°C, flow cytometry, mean of two independent experiments
T1 construct: endogenous in cells
Protocol: (§1) To test binding affinity of eluted and predicted peptides to HLA-I, competition-based cellular peptide binding assays were performed as described earlier. In short, B-LCLs were treated with a mild acid (1∶1 mixture of 0.263M C6H8O7*H2O and 0.126M Na2HPO4*2H2O) for 1 min to remove the naturally HLA-I bound peptides. Cells were buffered with cold IMDM containing 2% FCS immediately thereafter and resuspended at a concentration of 4×10^5 cells/ml in 2% FCS and 1.5 µg/ml human β2m (Sigma-Aldrich). Then, 4×10^4 cells/well were incubated with 150 nM of fluorescently labeled reference peptide and a serial dilution of one of the eluted or predicted peptides. The following HLA-I allele-restricted reference peptides were used: […] (for HLA-A0201), […] (for HLA-A0301), […] (for HLA-B0702) and […] (for HLA-B4002), each containing a fluorescent label bound to the cysteine residue. After overnight incubation at 4°C, cells were washed twice in PBS supplemented with 1% BSA and fixed in 0.5% paraformaldehyde. Cells were analyzed with CellQuestPro or FlowJo software (Tree Star, Ashland, OR, USA). IC50 values were defined with GraphPad Prism 4.02 (GraphPad Software Inc., La Jolla, USA) using the following formula: Y = Bmax*X/(IC50+X), in which Bmax is the maximal binding capacity of the positive control peptide, X the concentration of peptide tested and IC50 the concentration of peptide needed to reach half-maximal binding.

HLA-A0201 = target: T2, HLA-A0201 (Homo sapiens, UniProt P04439, D140Y/D185E/D98H/E176V/E277Q/G131W/G231S/I119V/I121R/I166T/I218V/L300P/L318F/N151K/N90K/P208A/P217A/Q86G/Q94H/R138H/R169H/T345S); assay: Competition-based cellular peptide binding assay, HLA-A0201; settings: for IC50: mild-acid-treated B-LCLs, 150 nM fluorescent reference peptide […], overnight 4°C, flow cytometry, mean of two independent experiments, read-out: HLA-A201 IC50
T2 construct: endogenous in cells
Protocol: To test binding affinity of eluted and predicted peptides to HLA-I, competition-based cellular peptide binding assays were performed as described earlier. […] Cells were buffered with cold IMDM containing 2% FCS immediately thereafter and resuspended at a concentration of 4×10^5 cells/ml in 2% FCS and 1.5 µg/ml human β2m (Sigma-Aldrich). […] The following HLA-I allele-restricted reference peptides were used: […] (for HLA-B0702) and […] (for HLA-B4002), each containing a fluorescent label bound to the cysteine residue. After overnight incubation at 4°C, cells were washed twice in PBS supplemented with 1% BSA and fixed in 0.5% paraformaldehyde. Cells were analyzed with CellQuestPro or FlowJo software (Tree Star, Ashland, OR, USA).

HLA-B4002 [2] = target: T3, HLA-B4002 (Homo sapiens, UniProt P01889, A65T/A93T/A95T/D138N/D201E/D98Y/E176V/E204Q/E69K/K202T/N87E/Q56L/Q94N/R180L/S48T/Y33H/Y91S); settings: Figure 3 legend; positive control peptide; cited from earlier work
Source text: (§2) (A0201 peptide), […] (A0301 peptide), SPSVDK ...

HLA-B4002 [3] = target: T3, HLA-B4002; assay: Competition-based cellular peptide binding assay, HLA-B4002; settings: Table 2; mild-acid-treated B-LCLs, 150 nM fluorescent reference peptide […], overnight 4°C, flow cytometry; mean of two independent experiments
Protocol: as §1

HLA-A0301 = target: T4, HLA-A0301 (Homo sapiens, UniProt P04439); assay: Competition-based cellular peptide binding assay, HLA-A0301; settings: Table 2; mild-acid-treated B-LCLs, 150 nM fluorescent reference peptide […], overnight 4°C, flow cytometry; mean of two independent experiments
T4 construct: endogenous in cells
Protocol: as §1

HLA-B0702 [4] = target: T1, HLA-B0702; settings: Figure 3 legend; positive control peptide; cited from earlier work
Source text: as §2

[5] = Table 1, class by IC50 cut-off values
[6] = Table 1, concentration for half maximal competition

Sequence	IC50 (HLA-B0702 [1]; Table 1)	IC50 (HLA-A0201; [6])	IC50 (HLA-B4002 [3])	IC50 (HLA-A0301)	IC50 (HLA-B0702 [1]; Table 2)	IC50 (HLA-A0201; Table 2)	further results
ETIDWKVFESW [Peptide 5]	> 100 µM	> 100 µM	–	–	–	–	HLA-B0702 Affinity (HLA-B0702 [1]; [5]): – (no binding, >100 µM); HLA-A201 Affinity (HLA-A0201; [5]): – (no binding, >100 µM)
GEFGGFGSV	–	–	–	–	–	–	IC50 (HLA-B4002 [2]): 0.2 µM
KMRMATPLL	–	–	0.44 µM	6.43 µM	0.47 µM	10.9 µM	–
LLAGQATT [Peptide 2]	40.9 µM	> 100 µM	–	–	–	–	–
LPMGALPQGPM [Peptide 4]	0.41 µM	> 100 µM	–	–	–	–	–
RMATPLLMQA	–	–	2.05 µM	2.45 µM	7.75 µM	8.08 µM	–
RMATPLLMQAL [RMATPLLMQAL]	–	–	0.48 µM	4.28 µM	1.85 µM	4.49 µM	–
RMATPLLMQALPM [Peptide 3]	0.36 µM	13.7 µM	3.43 µM	3.35 µM	–	–	–
SPSVDKARAEL	–	–	–	–	–	–	IC50 (HLA-B0702 [4]): 0.7 µM
SRGALYTGFSIL [Peptide 1]	1.39 µM	10.9 µM	–	–	–	–	–
